Data as given in patent publication US12668586B2, “AhR inhibitor, use thereof, and preparation method therefor” (CHONGQING PHARSCIN INNOBIO CO., LTD., priority 2021, dated 2026).

Each molecule was assayed against T1, AhR (Homo sapiens, UniProt P35869) (assay: AhR inhibitory activity experiment, in vitro assay 1: HepG2-Lucia AhR cells, Lucia luciferase reporter (QUANTI-Luc)). Details: 24 hours incubation at 37° C., Lucia luciferase in supernatant, read-out: AhR inhibitory activity C50.
T1 sequence (P35869 11-848): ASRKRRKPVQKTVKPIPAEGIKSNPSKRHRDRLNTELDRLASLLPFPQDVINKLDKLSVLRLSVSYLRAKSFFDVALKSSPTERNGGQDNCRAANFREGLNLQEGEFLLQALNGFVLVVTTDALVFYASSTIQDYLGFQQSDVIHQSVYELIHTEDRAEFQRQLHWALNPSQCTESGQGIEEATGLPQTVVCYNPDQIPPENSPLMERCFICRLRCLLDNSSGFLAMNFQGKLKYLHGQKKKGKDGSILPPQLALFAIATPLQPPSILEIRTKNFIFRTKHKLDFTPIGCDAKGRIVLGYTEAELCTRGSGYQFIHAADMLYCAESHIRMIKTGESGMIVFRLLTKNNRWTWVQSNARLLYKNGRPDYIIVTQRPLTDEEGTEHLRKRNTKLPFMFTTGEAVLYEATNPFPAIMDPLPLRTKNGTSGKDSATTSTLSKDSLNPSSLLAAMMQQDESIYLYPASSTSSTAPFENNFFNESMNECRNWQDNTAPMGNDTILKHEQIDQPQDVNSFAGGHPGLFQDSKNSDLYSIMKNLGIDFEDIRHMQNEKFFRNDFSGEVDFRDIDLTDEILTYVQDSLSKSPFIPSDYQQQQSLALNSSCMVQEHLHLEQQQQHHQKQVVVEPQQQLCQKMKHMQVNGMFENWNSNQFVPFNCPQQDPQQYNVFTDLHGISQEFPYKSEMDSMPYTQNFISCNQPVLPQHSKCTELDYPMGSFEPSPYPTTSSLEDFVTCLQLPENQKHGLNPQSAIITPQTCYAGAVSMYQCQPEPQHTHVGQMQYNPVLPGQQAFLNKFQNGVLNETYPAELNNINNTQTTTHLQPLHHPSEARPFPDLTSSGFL
Format: cell-based
Procedure: Test Example: AhR Inhibitory Activity Experiment
When QUANTI-Luc™ (InvivoGen Company) testing reagents are used, AhR gene signaling pathways can be studied by monitoring the activity of Lucia luciferase in the cell culture supernatant.
In Vitro Assay 1: Assay on Inhibitory Activity in Human Cell Lines
Adherent cell layers of HepG2-Lucia™ AhR cells in a logarithmic growth phase were washed with PBS, and then the cells were isolated with trypsin. The isolated cells were centrifuged at 1000 RPM for 5 minutes, the supernatant was removed, and the cells were re-suspended with a test medium by 1.25×10^5 cells/ml.
20,000 cells were added to each well of a 96-well plate, and the 96-well plate was placed in a CO2 incubator to incubate the cells at 37° C. for 24 hours in the absence (negative control) or presence of test compounds with gradient increasing concentrations (typical dilutions: 169 pmol/L, 0.5 nmol/L, 1.5 nmol/L; 4.6 nmol/L, 13.7 nmol/L, 41 nmol/L, 123 nmol/L, 370 nmol/L, 1.1 μmol/L, 3.3 μmol/L and 10 μmol/L, in triplicate).
The 20 μl/well cell supernatant was transferred to a black 96-well plate, a 50 μL/well QUANTI-Luc™ solution was added, and the activity of Lucia luciferase was measured on a multifunctional ELISA reader Spark 10 M (Tecan Company) through a QUANTI-Luc™ luciferase assay system.
Experimental results are shown in Table 1, wherein for IC50 values, “++++” represents IC50<0.05 μM; “+++” represents IC50 between 0.05 μM and 0.2 μM; “++” represents IC50 between 0.2 μM and 1.0 μM; and “+” represents IC50>1.0 μM.

SMILES | IC50
O=C(N[C@H]1CCc2ncccc21)c1cc(-c2ccc(OC(F)(F)F)cc2)nc(-c2cccnc2)n1 [Compound 27, (S)-6-(4-trifluoromethoxyphenyl)-N-((S)-6,7-dihydro-5H-cyclopentano[B]pyridin-5-yl)-2-(3-pyridyl)pyrimidine-4-formamide] | < 0.05 µM
Cn1cc(-c2nc(C(=O)N[C@H]3CCc4cc(C#N)ccc43)cc(-c3ccc(Cl)cc3)n2)cn1 [Compound 28, (S)-6-(4-chlorophenyl)-N-(5-cyano-(2,3-dihydro)-(−)-1-yl-2-indene)-2-(1-methyl-1H-pyrazol-4-yl)pyrimidine-4-formamide] | < 0.05 µM
COc1ccc([C@H](C)NC(=O)c2cc(-c3ccc(Cl)cc3)nc(-c3cnn(C)c3)n2)cc1Cl [Compound 29, (S)-6-(4-chlorophenyl)-N-(1-(3-chloro-4-methoxyphenyl)ethyl)-2-(1-methyl-1H-pyrazol-4-yl)pyrimidine-4-formamide] | < 0.05 µM
COc1cc([C@H](C)NC(=O)c2cc(-c3ccc(Cl)cc3)nc(-c3cnn(C)c3)n2)ccc1F [Compound 30, (S)-6-(4-chlorophenyl)-N-(1-(3-methoxy-4-fluorophenyl)ethyl)-2-(1-methyl-1H-pyrazol-4-yl)pyrimidine-4-formamide] | < 0.05 µM
C[C@H](NC(=O)c1cc(-c2ccc(Cl)cc2)nc(-c2cnn(C)c2)n1)c1ccc(F)c(Cl)c1 [Compound 31, (S)-6-(4-chlorophenyl)-N-(1-(3-chloro-4-fluorophenyl)ethyl)-2-(1-methyl-1H-pyrazol-4-yl)pyrimidine-4-formamide] | < 0.05 µM
C[C@H](NC(=O)c1cc(-c2ccc(C(F)(F)F)cc2)nc(-c2cnn(C)c2)n1)c1ccc(F)c(F)c1 [Compound 32, (S)-6-(4-trifluoromethylphenyl)-N-(1-(3,4-difluorophenyl)ethyl)-2-(1-methyl-1H-pyrazol-4-yl)pyrimidine-4-formamide] | < 0.05 µM
C[C@H](NC(=O)c1cc(-c2ccc(C(F)(F)F)cc2)nc(-c2cnn(C)c2)n1)c1ccnc(F)c1 [Compound 33, (S)-6-(4-trifluoromethylphenyl)-N-(1-(2-fluoro-4-pyridine)ethyl)-2-(1-methyl-1H-pyrazol-4-yl)pyrimidine-4-formamide] | < 0.05 µM
C[C@H](NC(=O)c1cc(-c2ccc(OC(F)(F)F)cc2)nc(-c2cnn(C)c2)n1)c1ccnc(F)c1 [Compound 34, (S)-6-(4-trifluoromethoxyphenyl)-N-(1-(2-fluoro-4-pyridine)ethyl)-2-(1-methyl-1H-pyrazol-4-yl)pyrimidine-4-formamide] | < 0.05 µM
C[C@H](NC(=O)c1cc(-c2ccc(Cl)cc2)nc(-c2cccnc2)n1)c1ccnc(F)c1 [Compound 35, (S)-6-(4-chlorophenyl)-N-(1-(2-fluoro-4-pyridine)ethyl)-2-(3-pyridin-4-yl)pyrimidine-4-formamide] | < 0.05 µM
C[C@H](NC(=O)c1cc(-c2ccc(Cl)cc2)nc(-c2cnc(Cl)nc2)n1)c1ccnc(F)c1 [Compound 36, (S)-6-(4-chlorophenyl)-N-(1-(2-fluoro-4-pyridine)ethyl)-2-(2-chloropyrimidin-5-yl)pyrimidine-4-formamide] | > 1 µM
C[C@H](NC(=O)c1cc(-c2ccc(Cl)cc2)nc(-c2ccnc(N)c2)n1)c1ccnc(F)c1 [Compound 37, (S)-6-(4-chlorophenyl)-N-(1-(2-fluoro-4-pyridine)ethyl)-2-(2-aminopyridin-4-yl)pyrimidine-4-formamide] | < 0.05 µM
C[C@H](NC(=O)c1cc(-c2ccc(Cl)cc2)nc(-c2ccnc(F)c2)n1)c1ccnc(F)c1 [Compound 38, (S)-6-(4-chlorophenyl)-N-(1-(2-fluoro-4-pyridine)ethyl)-2-(2-fluoropyridin-4-yl)pyrimidine-4-formamide] | < 0.05 µM
C[C@H](NC(=O)c1cc(-c2ccc(Cl)cc2)nc(-c2cnn(C3CC3)c2)n1)c1ccnc(F)c1 [Compound 39, (S)-6-(4-chlorophenyl)-N-(1-(2-fluoro-4-pyridine)ethyl)-2-(1-cyclopropylpyrazol-4-yl)pyrimidine-4-formamide] | > 1 µM
C[C@H](NC(=O)c1cc(-c2ccc(Cl)cc2)nc(-c2cnn(C)c2)n1)c1ccc(F)c(C#N)c1 [Compound 40, (S)-6-(4-chlorophenyl)-N-(1-(3-cyano-4-fluorophenyl)ethyl)-2-(1-methyl-1H-pyrazol-4-yl)pyrimidine-4-formamide] | < 0.05 µM
Cn1cc(-c2nc(C(=O)Nc3n[nH]c4ccccc34)cc(-c3ccc(Cl)cc3)n2)cn1 [Compound 41, 6-(4-chlorophenyl)-N-(1H-indazol-3-yl)-2-(1-methyl-1H-pyrazol-4-yl)pyrimidine-4-formamide] | > 1 µM
Cn1cc(-c2nc(C(=O)NC3(C)CCN(C(=O)C4CC4)CC3)cc(-c3ccc(Cl)cc3)n2)cn1 [Compound 43, 6-(4-chlorophenyl)-N-((4-yl-4-methylpiperidin-1-yl)(cyclopropyl)ketone)-2-(1-methyl-1H-pyrazol-4-yl)pyrimidine-4-formamide] | < 0.05 µM
Cn1cc(-c2nc(C(=O)NC3(C)CCN(CC(F)(F)F)CC3)cc(-c3ccc(Cl)cc3)n2)cn1 [Compound 44, 6-(4-chlorophenyl)-N-((4-yl-4-methylpiperidin-1-yl)trifluoroethyl)-2-(1-methyl-1H-pyrazol-4-yl)pyrimidine-4-formamide] | < 0.05 µM
Cn1cc(-c2nc(C(=O)NC3(C)CCN(CC(N)=O)CC3)cc(-c3ccc(Cl)cc3)n2)cn1 [Compound 45, 6-(4-chlorophenyl)-N-(2-(4-yl-4-methylpiperidin-1-yl)acetamide)-2-(1-methyl-1H-pyrazol-4-yl)pyrimidine-4-formamide] | < 0.05 µM
Cn1cc(-c2nc(C(=O)NC3(C)CCN(CC#N)CC3)cc(-c3ccc(Cl)cc3)n2)cn1 [Compound 46, 6-(4-chlorophenyl)-N-(1-(cyanomethyl)-4-methylpiperidin-4-yl)-2-(1-methyl-1H-pyrazol-4-yl)pyrimidine-4-formamide] | < 0.05 µM
C[C@H](NC(=O)c1cc(-c2ccc(F)cc2)nc(-c2cnn(C)c2)n1)c1ccnc(F)c1 [Compound 47, (S)-6-(4-fluorophenyl)-N-(1-(2-fluoro-4-pyridine)ethyl)-2-(1-methylpyrazol-4-yl)pyrimidine-4-formamide] | 0.05 to 0.2 µM
C[C@H](NC(=O)c1cc(-c2cnn(C)c2)nc(-c2cnn(C)c2)n1)c1ccnc(F)c1 [Compound 48, (S)-6-(1-methyl-1H-pyrazol-4-yl)-N-(1-(2-fluoro-4-pyridine)ethyl)-2-(1-methyl-1H-pyrazol-4-yl)pyrimidine-4-formamide] | > 1 µM
C[C@H](NC(=O)c1cc(-c2ccnc(F)c2)nc(-c2cnn(C)c2)n1)c1ccnc(F)c1 [Compound 49, (S)-6-(2-fluoro-4-pyridine)-N-(1-(2-fluoro-4-pyridine)ethyl)-2-(1-methyl-1H-pyrazol-4-yl)pyrimidine-4-formamide] | > 1 µM
COc1ccc(-c2nc(C(=O)N[C@@H](C)c3ccnc(F)c3)cc(-c3ccc(Cl)cc3)n2)cc1 [Compound 50, (S)-6-(4-chlorophenyl)-N-(1-(2-fluoro-4-pyridine)ethyl)-2-(p-methoxyphenyl)pyrimidine-4-formamide] | > 1 µM
Cn1cc(-c2nc(C(=O)NC3(c4ccc(Cl)cc4)CC3)cc(-c3ccc(Cl)cc3)n2)cn1 [Compound 51, (S)-6-(4-chlorophenyl)-N-(1-(4-chlorophenyl)cyclopropylamine)-2-(1-methyl-1H-pyrazol-4-yl)pyrimidine-4-formamide] | < 0.05 µM
CNC(=O)c1ccc([C@H](C)NC(=O)c2cc(-c3ccc(Cl)cc3)nc(-c3cnn(C)c3)n2)cc1F [Compound 52, (S)-6-(4-chlorophenyl)-N-(1-(3-fluoro-4-(methylaminoformyl)phenyl)ethyl)-2-(1-methyl-1H-pyrazol-4-yl)pyrimidine-4-formamide] | < 0.05 µM
CC(=O)Nc1ccc([C@H](C)NC(=O)c2cc(-c3ccc(Cl)cc3)nc(-c3cnn(C)c3)n2)cc1F [Compound 53] | < 0.05 µM
